Here are results for two molecules from article PMC8583042, “New Hybrid Compounds Combining Fragments of Usnic Acid and Thioether Are Inhibitors of Human Enzymes TDP1, TDP2 and PARP1” (International Journal of Molecular Sciences, 2021).

The assay concerns the target T1, TDP2 (Homo sapiens, UniProt O95551).
T1 construct: His-tag (N); made in house; host or cells: E. coli BL21 (DE3)
T1 sequence (O95551 1-362): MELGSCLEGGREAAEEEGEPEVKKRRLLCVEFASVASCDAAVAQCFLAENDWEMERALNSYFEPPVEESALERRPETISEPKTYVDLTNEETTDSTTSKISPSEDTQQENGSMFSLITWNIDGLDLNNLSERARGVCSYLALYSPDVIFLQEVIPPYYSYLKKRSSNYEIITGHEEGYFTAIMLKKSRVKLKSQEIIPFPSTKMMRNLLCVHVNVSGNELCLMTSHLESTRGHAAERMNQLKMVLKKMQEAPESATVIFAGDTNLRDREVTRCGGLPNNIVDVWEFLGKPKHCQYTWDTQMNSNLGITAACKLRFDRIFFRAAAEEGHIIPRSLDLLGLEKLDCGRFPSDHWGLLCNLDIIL
Description: Gel-based TDP2 activity assay. The assay is classed as biochemical. How it is done: To study the ability of the investigated compounds to inhibit TDP2 activity, we separated the TDP2 reaction products under denaturing conditions in polyacrylamide gel (PAGE). We tested the ability of TDP2 to eliminate tyrosine residues from the 5’ end of the oligonucleotide substrate in the absence and presence of TDP1 inhibitors. […] The residual TDP2 activity for the best four TDP1 inhibitors, 7g,h and 10a,b, was from 30 to 60%, depending on the tested compound, at a 1 mM concentration of the inhibitor. We tested the ability of compounds 7g,h and 10a,b to inhibit TDP2 activity at 0.2 mM and 0.5 mM concentrations (Figure S26).
The recombinant N-terminally His-tagged TDP2 was expressed in E. coli BL21 (DE3) cells. The plasmid pLATE-31-TDP2 expression vector was constructed as follows. cDNA encoding the TDP2 protein was cloned in the pLATE-31 expression vector using a LICator LIC Cloning and Expression System (Thermo Scientific, Waltham, MA, USA). […]
Oligonucleotide 5′- tyrosine -AAC GTC AGG GTC TTC C- FAM -3′ was synthesized as described above and used for the indication of TDP2 enzyme activity in polyacrylamide gel. […] A Typhoon FLA 9500 phosphorimager (GE Healthcare, Boston, MA, USA) was used for gel scanning and imaging, and the data were analyzed with QuantityOne 4.6.7 software (Bio-Rad Laboratories, Inc., Hercules, CA, USA).

For `CC(=O)C1=C(O)C=C2Oc3c(C(=O)C[S+]([O-])c4nc5ccccc5s4)c(O)c(C)c(O)c3[C@@]2(C)C1=O` (stereo partly drawn) [10a, (2R)-4-acetyl-10-[2-(1,3-benzothiazole-2-sulfinyl)acetyl]-5,11,13-trihydroxy-2,12-dimethyl-8-oxatricyclo[7.4.0.0^2,7]trideca-1(13),4,6,9,11-pentaen-3-one], the “TDP2 inhibition (in words)” value is given as “moderately inhibit TDP2”.

In the case of `CC(=O)c1c(O)c(C)c(O)c2c1OC1=CC(=O)C(C(C)=O)C(=O)C12C` (centres unmarked) [UA, usnic acid], the “TDP2 inhibition (in words)” value is listed as “did not inhibit TDP2”.
